Publication PMC12561670, “Isolation of Dual-Active Drugs with Anticancer and Antibacterial Activities That Target Both Tubulin and FtsZ” (Antibiotics, 2025)
Values after ≈ are worked out from the molar mass of the structure shown.

Assays:
[1] = tested on: B. subtilis (CICC 21164); test: MIC, broth microdilution; format: cell-based; settings: Bacillus subtilis; broth microdilution, 18 h, 37 °C; read-out: MIC B. subtilis (CICC 21164)
Protocol: MIC assays were carried out by employing the broth microdilution method in accordance with Clinical and Laboratory Standards Institute (CLSI) guidelines. E. coli BNCC337004, S. aureus BNCC336423, P. aeruginosa BNCC337099, and B. subtilis CICC 21164 were applied for the MIC detection. Mueller–Hinton broth (MHB) was used in bacterial culture, and log-phase bacteria were diluted into a 0.5 McFarland Standard suspension, which was then diluted 1000 times again. Subsequently, 100 μL of the obtained bacterial suspension was placed into each well of 96-well microtiter plates, along with 2-fold serial dilutions of compounds (512, 256, 128, 64, 32, 16, 8, 4, 2, 1, 0.5, 0 μM). The microtiter plates were incubated aerobically for 18 h at 37 °C. The MIC was defined as the lowest drug concentration at which no visible turbidity was observed. All experiments are conducted in three parallel.

[2] = tested on: E. coli (ATCC 8739); test: MIC, broth microdilution; format: cell-based; settings: Escherichia coli, ATCC8739; broth microdilution, 18 h, 37 °C; read-out: MIC E. coli (ATCC 8739)
[3] = tested on: S. aureus BNCC336423; test: Time–killing curve; format: cell-based; settings: S. aureus BNCC336423, concentrations of 4× the MIC or greater
Protocol: S. aureus BNCC336423 was employed for the time–killing curve study. […] Meanwhile, DMSO with an equivalent volume was added to the vehicle control tube. The cultures were then subjected to shaking incubation at 37 °C. Subsequently, cultures were taken out at predetermined time intervals (0, 1, 2, 4, 6, 8, and 24 h), centrifuged at 16,000×g for 3 min, and diluted to an appropriate multiple. These diluted samples were then plated onto Tryptic Soy Agar (TSA) plates for enumeration. Following a 24 h incubation period at 37 °C, colonies on the TSA plates were counted for the CFU/mL, thereby providing insights into the time-dependent bactericidal activity of the tested compounds.

[4] = molecular target: T1, S. aureus FtsZ (Staphylococcus aureus, UniProt P0A031); test: FtsZ polymerization assay (A340); format: biochemical
T1 construct: His tag; made in house; host or cells: E. coli BL21(DE3)
T1 sequence (P0A031 1-390): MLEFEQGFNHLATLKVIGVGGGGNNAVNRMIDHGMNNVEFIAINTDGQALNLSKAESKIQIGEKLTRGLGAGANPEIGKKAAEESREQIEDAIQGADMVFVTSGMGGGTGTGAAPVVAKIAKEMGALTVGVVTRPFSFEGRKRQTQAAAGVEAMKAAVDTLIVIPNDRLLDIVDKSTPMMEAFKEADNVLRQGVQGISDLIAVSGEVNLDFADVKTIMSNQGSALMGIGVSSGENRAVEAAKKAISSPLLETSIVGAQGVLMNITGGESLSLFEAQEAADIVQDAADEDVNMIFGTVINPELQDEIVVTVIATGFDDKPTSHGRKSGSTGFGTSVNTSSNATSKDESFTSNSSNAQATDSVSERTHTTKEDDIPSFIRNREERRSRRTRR
Protocol: The effect of compounds on S. aureus FtsZ polymerization was monitored by employing a microtiter plate-based spectrophotometric assay method, and the reactions were conducted in flat-bottomed 96-well microtiter plates. The degree of FtsZ polymerization was reflected by the corresponding changes in absorbance at 340 nm (A340). […] The polymerization reaction began immediately once 4 mM GTP was added, and then the polymerization was continuously monitored at 25 °C for 60 min by measuring A340 in BioTek-Synergy4 multifunctional enzyme-linked immunosorbent assay (ELISA) reader.

[5] = molecular target: T2, FtsZ (Staphylococcus aureus, UniProt P0A031); test: Sedimentation assay of FtsZ polymerization; format: biochemical; settings: 50 μM compound, 5 μM FtsZ, 37 °C 30 min
T2 construct: His tag; made in house; host or cells: E. coli BL21(DE3)
T2 sequence (P0A031 1-390): T1 sequence (P0A031 1-390)
Protocol: Sedimentation assay was also conducted for the influence of compounds on FtsZ polymerization. FtsZ (5 μM) was polymerized in a buffer containing 25 mM Pipes buffer (pH 6.8) and 3 mM MgSO4 in the […] of DMSO or compounds (50 μM). After the addition of 4 mM GTP, the sample was instantly placed at 37 °C for 30 min. Then, the polymers were collected by centrifuging for 30 min at 25 °C. The protein concentration in the supernatant was determined using the Bradford quantification method, with bovine serum albumin (BSA) as the standard. The experiment was performed in triplicate, and the average absorbance is shown.

[6] = tested on: A549; test: Anticancer activity IC50; format: cell-based; settings: Homo sapiens, abstract only

**Q.** Which results are given for `CC(C)(C)c1[nH]cnc1/C=c1\[nH]c(=O)/c(=C/c2ccccc2)[nH]c1=O` [Compound 23, Plinabulin]?
**A.** MIC [1]: 8 µM (≈ 2.69 µg/mL); MIC [2]: 64 µM (≈ 21.5 µg/mL); logs of kill in time–kill [3]: 3 logs; effect on FtsZ polymerization (A340) ([4]; 50 μM compound, 5 µM FtsZ, 4 mM GTP, vs DMSO): remarkable promoting effect on FtsZ polymerization; effect on FtsZ polymerization at different concentrations ([4]; 5, 10, 20 and 50 μM, initial 10 min): markedly accelerated FtsZ polymerization; effect on FtsZ sedimentation (polymerization amount) [5]: markedly enhanced protein sedimentation; IC50 [6]: 12 nM
